Data as given in publication PMC2891302 (Bioconjugate chemistry, 2009).

How the values were obtained:
human washed platelets = test: Inhibition of ADP-induced aggregation of human washed platelets; assay type: cell-based; conditions: Platelet, read-out: IC50, inhibition of platelet aggregation
hA3 AR = target: T1, hA3 AR (Homo sapiens, UniProt P0DMS8); test: Radioligand binding at hA3 AR
T1 sequence (P0DMS8 1-318): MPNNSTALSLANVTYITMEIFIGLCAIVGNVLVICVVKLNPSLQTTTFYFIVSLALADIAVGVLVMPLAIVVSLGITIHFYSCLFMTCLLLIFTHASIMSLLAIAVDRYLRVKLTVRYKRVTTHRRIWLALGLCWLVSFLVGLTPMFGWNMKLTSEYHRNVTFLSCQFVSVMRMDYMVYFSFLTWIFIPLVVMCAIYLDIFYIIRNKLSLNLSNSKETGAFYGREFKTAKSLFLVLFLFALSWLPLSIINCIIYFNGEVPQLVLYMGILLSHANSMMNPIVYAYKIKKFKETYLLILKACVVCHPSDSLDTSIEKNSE

hA1 AR = target: T2, hA1 AR (Homo sapiens, UniProt P30542); test: Radioligand binding at hA1 AR
T2 sequence (P30542 1-326): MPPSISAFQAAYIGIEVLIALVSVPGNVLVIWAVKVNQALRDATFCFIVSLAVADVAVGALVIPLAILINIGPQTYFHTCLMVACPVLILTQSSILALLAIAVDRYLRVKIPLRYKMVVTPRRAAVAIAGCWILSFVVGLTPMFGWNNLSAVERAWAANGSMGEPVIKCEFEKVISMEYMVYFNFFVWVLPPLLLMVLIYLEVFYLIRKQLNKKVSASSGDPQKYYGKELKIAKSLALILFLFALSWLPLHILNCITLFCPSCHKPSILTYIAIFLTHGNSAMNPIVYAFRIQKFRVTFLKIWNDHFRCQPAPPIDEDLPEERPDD

hA2B AR = target: T3, hA2B AR (Homo sapiens, UniProt P29275); test: Cyclic AMP accumulation assay, CHO cells expressing hA2B AR; assay type: cell-based; conditions: at 10 μM, in comparison to full agonist NECA (100%)
T3 sequence (P29275 1-332): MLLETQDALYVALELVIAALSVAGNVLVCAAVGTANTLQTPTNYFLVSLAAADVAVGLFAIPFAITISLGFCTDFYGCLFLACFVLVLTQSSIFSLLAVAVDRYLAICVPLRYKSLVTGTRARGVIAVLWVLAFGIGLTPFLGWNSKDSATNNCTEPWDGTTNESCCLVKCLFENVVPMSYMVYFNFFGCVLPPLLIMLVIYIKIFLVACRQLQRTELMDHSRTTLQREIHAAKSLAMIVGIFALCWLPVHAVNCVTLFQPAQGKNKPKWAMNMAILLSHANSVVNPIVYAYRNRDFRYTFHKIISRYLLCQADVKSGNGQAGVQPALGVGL

[1] = inhibition of radioligand binding at 1 μM

Row | Compound | IC50 (human washed platelets) | inhibition at 1 µM (hA3 AR; read-out: hA3 % inhibition) | inhibition at 1 µM (hA1 AR; read-out: hA1 % inhibition) | hA2B % activation of adenylate cyclase (hA2B AR) | hA3 % inhibition (hA3 AR; [1]) | hA1 % inhibition (hA1 AR; [1])
1 | CCNC(=O)[C@H]1O[C@@H](n2cnc3c(N)nc(NCCc4ccc(CCC(=O)O)cc4)nc32)[C@H](O)[C@@H]1O [compound 1, 2-[4-(2-carboxylethyl)phenylethylamino]-5′-N-ethylcarboxamidoadenosine, reference compound] | 192 ± 90 nM | 59.8 ± 4.4% | 24.9 ± 4.6% |  |  | 
2 | CCNC(=O)[C@H]1O[C@@H](n2cnc3c(N)nc(NCCc4ccc(CCC(=O)NCCN)cc4)nc32)[C@H](O)[C@@H]1O [compound 2, 2-[4-(2-Aminoethylaminocarbonylethyl)phenylethylamino]-5′-N-ethylcarboxamidoadenosine, reference compound] |  |  |  | 5.5 ± 4.7% | 85.3 ± 3.2% | 56.9 ± 9.1%
